Assay: Agonist activity at ERalpha in human MCF7 cells assessed as induction of cell proliferation incubated for 5 days by WST-8 assay

EC50: 220 pM
Structure (SMILES): CC(=O)N1C(C)(C)CC(=C(c2ccc(O)cc2)c2ccc(O)cc2)CC1(C)C
